Patent US4239901A, “Pyrazol-1-ylphenylacetic acids” (Byk Gulden Lomberg Chemische Fabrik GmbH, priority 1976, dated 1980)
Where two headings read alike, the source gives them in different places.

Experiments:
[1] = system: pain reaction provoked in the rat through bending of an inflamed ankle joint; assay: Analgesic effect, pain reaction provoked through bending of an inflamed ankle joint (AgNO3 inflammation); conditions: for ED25: Rattus norvegicus, po, read-out: Analgesic effect ED25 (= dose which in 25% of the animals completely suppresses the pain reaction); for Therap. Quotient LD50/ED25: Table 5, LD50 mouse i.p. / ED25 rat oral, analgesic
Description: The influence of the compounds which were to be tested on the pain reaction provoked in the rat through bending of an inflamed tarsal joint (AgNO3 inflammation) was determined as follows:
In imitation of HOFFMEISTER et al [Arzneim.Forsch. […] The animals are kept at 24° C. and receive as food Altromin®R and water ad libitum. […] All the positively-reacting animals are concentrated in groups of 10 animals. The compounds which are to be tested are administered orally in a liquid volume of 20 ml/kg 1 hour before the AgNO3 application; the untreated control animals receive the corresponding amount of tap water.
Within 5 hours after administration of the substance the number of reacting animals is ascertained at hourly intervals.
As measure for the analgesic effect there serves the maximum % proportion of the protected animals within 5 hours after administration of the substance [referred to the number of reacting animals of the control group (=100%)]

in vivo = conditions: mouse, ip
[2] = system: carrageenin oedema of rat hind paw; assay: Inhibition of carrageenin oedema of rat hind paw; conditions: for ED40 / inhibition at 100 mg/kg: Rattus norvegicus; for ED40: po, read-out: Inhibition of carrageenin oedema of rat hind paw by 40% (=ED40) after single oral dose; for Therapeutic Quotient LD50/ED40: Table 2, LD50 mouse i.p. / ED40 rat oral; for inhibition at 100 mg/kg: read-out: oedema inhibition
Description: The influence of the compounds which were to be tested on carrageenin oedema of rat hind paw was determined as follows:
Female Sprague-Dawley rats (groups of, in each instance, 10 animals; weight of each animal 140-170 g) from which food (Altromin®R, water ad libitum) is withheld about 16 hours beforehand are each injected subplantarly in the right hind paw with 0.05 ml of a 1% strength carrageenin suspension 1 hour after oral administration of the compounds which are to be tested. The rats are kept at 24° C.
The determination of the paw volume of each rat (in each case, 2-3 individual measurements) is effected plethysmometrically before and 2 and 4 hours after oedema provocation.
As measure for the antiphlogistic effect there serves the average percentage oedema inhibition (i.e. the average from the measured values obtained 3 and 5 hours after administration of the substance).
The determination of the paw volume is effected plethysmometrically. Measuring principle: the liquid volume displaced by the rat paw is registered digitally via an electromechanical pressure converter (Statham P 23 V, 0-200 mm Hg).
The stated doses of the medicaments tested were administered in a liquid volume of 20 ml/kg.

[3] = system: granulation tissue formation in the rat; conditions: Table 3; for Therapeutic Quotient LD50/ED20: LD50 mouse i.p. / ED20 rat oral
Description: Test procedure for the investigation of the influence of the compounds which are to be tested on granulation tissue formation after cotton-wool implantation in the rat (so-called cotton pellet method):
Closure of the skin cut is effected by means of clips.
On seven consecutive days the compounds which are to be tested (as sodium salt in aqueous solution) or the corresponding amount (5 ml/kg/day) of tap water (=control group) are administered orally daily.
On the eighth day the animals are killed, the cotton-wool granulomata are cautiously freed without cutting, i.e. preserving the fibrous capsule, dried (15 hours at 120° C.) and weighed. By deducting the weight component of the cotton-wool pellets the amount of newly formed granulation tissue is obtained.
As measure for the anti-proliferative effect of a compound there serves the percentage lessening of the average granuloma dry weight of a treated group (=16 granulomata) compared to the control group (=100%).

[4] = system: adjuvant arthritis in the rat (Mycobacterium butyricum); assay: Anti-arthritic effect (adjuvant arthritis); format: in vivo, rat (male Sprague-Dawley); conditions: Table 4, LD50 mouse i.p. / ED25 rat oral
Description: In imitation of the method described by NEWBOULD and PERRINE et al. [NEWBOULD, B. B.; Brit. […] Pharmacodyn. […] Antiphlogistic agents inhibit this swelling reaction.
Male Sprague-Dawley rats (150-190 g) are each injected intradermally into the tail root on day zero with 0.1 ml/animal of a 0.5% strength Myobact. butyrum/paraffin oil suspension. […] On the 17th day after administration of adjuvant, all positively-reacting animals (paw volume increase at least 30%) are selected and concentrated in groups of 10 animals with equal paw volume distribution.
The compounds to be tested are now administered on the following 5 days, that is to say from the 17th to the 21st day after administration of adjuvant, once daily orally in 10 ml/kg of liquid.
As measure for the anti-arthritic effect there serves the decrease of the paw swelling on the 21st day after the administration of adjuvant, referred in each case to the paw swelling of the control group (=100%); the paw volume is determined plethysmometrically.

yeast fever of the rat = assay: Antipyretic effect, yeast fever of the rat; format: in vivo, rat (female Sprague-Dawley); conditions: read-out: Antipyretic effect ED0.75 (dose which lowers the yeast fever of the rat by 0.75° C.)
Description: The antipyretic effect is determined from the influence of the compounds to be tested on the yeast fever of the rat.
In female Sprague-Dawley rats (in each series of experiments, 30 rats in groups of 5 animals; animal weight 170-200 g) a hyperthermia is produced through subcutaneous injection (neck) of 20 ml/kg of a 20% strength aqueous brewer's yeast suspension (brewers' yeast "Heliosan"/Hefereformwerk Radolfzell). 24 hours after the yeast injection, the body temperature is measured rectally at hourly intervals.
After a preliminary measurement the compounds which are to be tested are administered to the animals orally in a liquid volume of 5 ml/kg; a control group receives the corresponding amount of tap water. Food (Altromin®R, water ad libitum) was withheld from the rats 18 hours beforehand. The rats are kept at about 23° C.
As measure for the antipyretic effect there serves the maximum lowering of temperature (with reference to the temperature of the preliminary measurement, i.e. immediately before administration of the substance) in the course of 4 hours. The body temperature is measured with a Iastomed H (Braun electronic).

mouse = conditions: for Lethal effect LD50 after single intraperitoneal administration to the mouse: Table 3, single i.p.; for LD50 after a single administration mouse: Table 4, single i.p.; for Toxicity after single intraperitoneal administration to the mouse LD50: Table 5, single i.p.; for Toxicity after single intraperitoneal administration in the mouse LD50: Table 6, single i.p.

Row | Compound | ED25 [1] | Therap. Quotient LD50/ED25 [1] | LD50 (in vivo) | ED40 [2] | Therapeutic Quotient LD50/ED40 [2] | Therapeutic Quotient LD50/ED20 [3] | Inhibition of granulation tissue formation after subcutaneous cotton-wool implantation by 20% (=ED20) in the rat after 7-day oral administration [3] | Therapeutic Quotient LD50/ED25 [4] | ED (0.75 degC) (yeast fever of the rat; Table 6, rat, oral) | Lethal effect LD50 after single intraperitoneal administration to the mouse (mouse) | LD50 after a single administration mouse (mouse) | Toxicity after single intraperitoneal administration to the mouse LD50 (mouse) | Toxicity after single intraperitoneal administration in the mouse LD50 (mouse) | ED (0.75 degC) (yeast fever of the rat; po) | inhibition at 100 mg/kg [2]
1 | CC(C(=O)[O-])c1cc(Cl)c(-n2cccn2)cc1Cl.[Na+] (stereo not drawn) | 2.5 mg/kg | 420 | 1050 mg/kg | – | – | – | – | – | – | – | – | – | – | – | –
2 | CC(C(=O)O)c1ccc(-n2cc(Cl)cn2)c(Cl)c1 (stereo not drawn) [I, 2-[3-chloro-4-(4-chloropyrazol-1-yl)phenyl]-propionic acid] | 0.4 mg/kg | 813 | 325 mg/kg | 5 mg/kg | 65 | 108.3 | 3 mg/kg/die | 1625 | 3.5 mg/kg | 325 mg/kg i.p. | 325 mg/kg i.p. | 325 mg/kg i.p. | 325 mg/kg i.p. | – | –
3 | O=C(O)Cc1ccc(-n2cc(Cl)cn2)cc1 [II, 4-(4-chloropyrazol-1-yl)phenylacetic acid] | – | – | 460 mg/kg | 8 mg/kg | 58 | – | – | – | – | – | – | – | – | – | –
4 | O=C(O)Cc1ccc(-n2cc(Br)cn2)cc1 [III, 4-(4-bromopyrazol-1-yl)phenylacetic acid] | 1.2 mg/kg | 458 | 550 mg/kg | 4 to 5 mg/kg | 122 | – | – | – | 20 mg/kg | – | – | 550 mg/kg i.p. | 550 mg/kg i.p. | – | –
5 | O=C(O)Cc1ccc(-n2cc(Cl)cn2)c(Cl)c1 [IV, 3-chloro-4-(4-chloropyrazol-1-yl)phenylacetic acid] | 2.5 mg/kg | 184 | 460 mg/kg | 2 mg/kg | 230 | 23.0 | 20 mg/kg/die | 657 | – | 460 mg/kg i.p. | 460 mg/kg i.p. | 460 mg/kg i.p. | – | – | –
6 | CCCCC1C(=O)N(c2ccccc2)N(c2ccccc2)C1=O [IX, phenylbutazone, reference compound] | 2 mg/kg | – | – | 40 mg/kg | – | – | 100 mg/kg/die | – | 15 mg/kg | – | – | – | – | – | –
7 | CC(C(=O)O)c1ccc(-n2cc(Br)cn2)c(Cl)c1 (stereo not drawn) [V, 2-[3-chloro-4-(4-bromopyrazol-1-yl)phenyl] acid] | 0.8 mg/kg | 406 | 325 mg/kg | 2 mg/kg | 163 | ~ 32.5 | ~ 10 mg/kg/die | 1625 | 5 mg/kg | – | – | – | – | – | –
8 | CC(C(=O)O)c1cc(Cl)c(-n2cc(Br)cn2)cc1Cl (stereo not drawn) [VII, 2-[2,5-dichloro-4-(4-bromopyrazol-1-yl)phenyl]propionic acid] | 1.2 mg/kg | 238 | 285 mg/kg | – | – | – | – | – | – | – | – | – | – | – | –
9 | O=C(O)Cc1ccc(-n2cccn2)cc1 [VIII, 4-(pyrazol-1-yl)phenylacetic acid] | – | – | 1200 mg/kg | 8 mg/kg | 150 | – | – | – | 32 mg/kg | – | – | – | 1200 mg/kg i.p. | – | –
10 | COc1ccc2c(c1)c(CC(=O)O)c(C)n2C(=O)c1ccc(Cl)cc1 [X, indomethacin, reference compound] | 0.3 mg/kg | 150 | 45 mg/kg | 4 mg/kg | 11 | 12.8 | 3-5 mg/kg/die | 450 | – | 45 mg/kg i.p. | 45 mg/kg i.p. | 45 mg/kg i.p. | 45 mg/kg i.p. | 2.5 mg/kg | –
11 | Cn1nc(-c2ccc(CC(=O)O)cc2)cc1-c1ccccc1 [XI, 4-(1-methyl-5-phenylpyrazol-3-yl)phenylacetic acid, reference compound] | – | – | 430 mg/kg | > 100 mg/kg | < 4 | – | – | – | – | – | – | – | – | – | 25%
12 | O=C(O)Cc1ccc(-c2cc(-c3ccccc3)n(-c3ccccc3)n2)cc1 [XII, 4-(1,5-diphenyl-pyrazol-3-yl)phenylacetic acid, reference compound] | – | – | 200 mg/kg | 63 mg/kg | 3 | – | – | – | – | – | – | – | – | – | –
13 | CN1N=C(c2ccc(CC(=O)O)cc2)CC1c1ccccc1 (stereo not drawn) [XIII, 4-(1-methyl-5-phenyl-2-pyrazoline-3-yl)phenylacetic acid, reference compound] | – | – | – | > 100 mg/kg | – | – | – | – | – | – | – | – | – | – | 25%
